Results as given in ChEMBL document CHEMBL4665869, “New thiazolopyrimidine as anticancer agents: Synthesis, biological evaluation, DNA binding, molecular modeling and ADMET study” (Bioorg Med Chem Lett, 2020).
In brackets after ≈: the same amount, converted by molar mass. Activity calls are given as the source filed them. No cut-off for these calls is given here.

Tests used:
[1] = tested on: SW-620; test: Growth inhibition of human SW-620 cells at 10 uM relative to control; format: functional; details: read-out: GI
[2] = tested on: T47D; test: Growth inhibition of human T47D cells at 10 uM relative to control; format: functional
[3] = tested on: HT-29; test: Growth inhibition of human HT-29 cells at 10 uM relative to control; format: functional; details: read-out: GI
[4] = tested on: M14; test: Growth inhibition of human M14 cells at 10 uM relative to control; format: functional
[5] = tested on: MDA-MB-435; test: Growth inhibition of human MDA-MB-435 cells at 10 uM relative to control; format: functional
[6] = tested on: SN12C; test: Growth inhibition of human SN12C cells at 10 uM relative to control; format: functional; details: read-out: GI
[7] = tested on: U-251; test: Growth inhibition of human U-251 cells at 10 uM relative to control; format: functional; details: read-out: GI
[8] = tested on: SF-268; test: Growth inhibition of human SF-268 cells at 10 uM relative to control; format: functional
[9] = tested on: HOP-92; test: Growth inhibition of human HOP-92 cells at 10 uM relative to control; format: functional
[10] = tested on: DU-145; test: Growth inhibition of human DU-145 cells at 10 uM relative to control; format: functional; details: read-out: GI
[11] = tested on: UO-31; test: Growth inhibition of human UO-31 cells at 10 uM relative to control; format: functional; details: read-out: GI
[12] = tested on: A498; test: Growth inhibition of human A498 cells at 10 uM relative to control; format: functional
[13] = tested on: MOLT-4; test: Growth inhibition of human MOLT-4 cells at 10 uM relative to control; format: functional
[14] = tested on: TK-10; test: Growth inhibition of human TK-10 cells at 10 uM relative to control; format: functional; details: read-out: GI
[15] = tested on: ACHN; test: Growth inhibition of human ACHN cells at 10 uM relative to control; format: functional
[16] = tested on: Malme-3M; test: Growth inhibition of human Malme-3M cells at 10 uM relative to control; format: functional
[17] = tested on: MDA-MB-231; test: Growth inhibition of human MDA-MB-231 cells at 10 uM relative to control; format: functional; details: read-out: GI
[18] = tested on: IGROV-1; test: Growth inhibition of human IGROV-1 cells at 10 uM relative to control; format: functional
[19] = tested on: OVCAR-4; test: Growth inhibition of human OVCAR-4 cells at 10 uM relative to control; format: functional; details: read-out: GI
[20] = tested on: NCI-H460; test: Growth inhibition of human NCI-H460 cells at 10 uM relative to control; format: functional; details: read-out: GI
[21] = tested on: A549; test: Growth inhibition of human A549 cells at 10 uM relative to control; format: functional
[22] = tested on: OVCAR-8; test: Growth inhibition of human OVCAR-8 cells at 10 uM relative to control; format: functional
[23] = tested on: Hs-578T; test: Growth inhibition of human Hs-578T cells at 10 uM relative to control; format: functional
[24] = tested on: NCI-H522; test: Growth inhibition of human NCI-H522 cells at 10 uM relative to control; format: functional
[25] = tested on: CAKI-1; test: Growth inhibition of human CAKI-1 cells at 10 uM relative to control; format: functional
[26] = tested on: UACC-257; test: Growth inhibition of human UACC-257 cells at 10 uM relative to control; format: functional; details: read-out: GI
[27] = tested on: HOP-62; test: Growth inhibition of human HOP-62 cells at 10 uM relative to control; format: functional; details: read-out: GI
[28] = tested on: HCT-116; test: Growth inhibition of human HCT-116 cells at 10 uM relative to control; format: functional; details: read-out: GI
[29] = tested on: SK-MEL-5; test: Growth inhibition of human SK-MEL-5 cells at 10 uM relative to control; format: functional
[30] = tested on: SR; test: Growth inhibition of human SR cells at 10 uM relative to control; format: functional
[31] = tested on: HCC 2998; test: Growth inhibition of human HCC 2998 cells at 10 uM relative to control; format: functional
[32] = tested on: CCRF-CEM; test: Growth inhibition of human CCRF-CEM cells at 10 uM relative to control; format: functional
[33] = tested on: SK-OV-3; test: Growth inhibition of human SK-OV-3 cells at 10 uM relative to control; format: functional; details: read-out: GI
[34] = tested on: HCT-15; test: Growth inhibition of human HCT-15 cells at 10 uM relative to control; format: functional; details: read-out: GI
[35] = tested on: 786-0; test: Growth inhibition of human 786-0 cells at 10 uM relative to control; format: functional; details: read-out: GI
[36] = tested on: COLO 205; test: Growth inhibition of human COLO 205 cells at 10 uM relative to control; format: functional
[37] = tested on: OVCAR-5; test: Growth inhibition of human OVCAR-5 cells at 10 uM relative to control; format: functional
[38] = tested on: NCI-H226; test: Growth inhibition of human NCI-H226 cells at 10 uM relative to control; format: functional
[39] = tested on: LOX IMVI; test: Growth inhibition of human LOX IMVI cells at 10 uM relative to control; format: functional; details: read-out: GI
[40] = tested on: Panel NCI-60 (60 carcinoma cell lines); test: Growth inhibition of human NCI60 cells; format: functional
[41] = tested on: MDA-MB-468; test: Growth inhibition of human MDA-MB-468 cells at 10 uM relative to control; format: functional
[42] = tested on: NCI/ADR-RES; test: Growth inhibition of human NCI/ADR-RES cells at 10 uM relative to control; format: functional; details: read-out: GI
[43] = tested on: NCI-H322M; test: Growth inhibition of human NCI-H322M cells at 10 uM relative to control; format: functional; details: read-out: GI
[44] = tested on: PC-3; test: Growth inhibition of human PC-3 cells at 10 uM relative to control; format: functional; details: read-out: GI
[45] = tested on: SF-295; test: Growth inhibition of human SF-295 cells at 10 uM relative to control; format: functional
[46] = tested on: SK-MEL-28; test: Growth inhibition of human SK-MEL-28 cells at 10 uM relative to control; format: functional
[47] = tested on: K562; test: Growth inhibition of human K562 cells at 10 uM relative to control; format: functional; details: read-out: GI
[48] = tested on: NCI-H23; test: Growth inhibition of human NCI-H23 cells at 10 uM relative to control; format: functional; details: read-out: GI
[49] = tested on: RPMI-8226; test: Growth inhibition of human RPMI-8226 cells at 10 uM relative to control; format: functional
[50] = tested on: BT-549; test: Growth inhibition of human BT-549 cells at 10 uM relative to control; format: functional
[51] = target: DNA; test: Displacement of methyl green from DNA (unknown origin) assessed as DNA intercalation after 24 hrs by colorimetric assay; format: nucleic-acid assay
[52] = tested on: MCF7; test: Growth inhibition of human MCF7 cells at 10 uM relative to control; format: functional; details: read-out: GI
[53] = tested on: SNB-19; test: Growth inhibition of human SNB-19 cells at 10 uM relative to control; format: functional
[54] = tested on: KM12; test: Growth inhibition of human KM12 cells at 10 uM relative to control; format: functional; details: read-out: GI
[55] = tested on: SF-539; test: Growth inhibition of human SF-539 cells at 10 uM relative to control; format: functional
[56] = tested on: RXF 393; test: Growth inhibition of human RXF 393 cells at 10 uM relative to control; format: functional
[57] = tested on: SK-MEL-2; test: Growth inhibition of human SK-MEL-2 cells at 10 uM relative to control; format: functional
[58] = tested on: UACC-62; test: Growth inhibition of human UACC-62 cells at 10 uM relative to control; format: functional
[59] = tested on: SNB-75; test: Growth inhibition of human SNB-75 cells at 10 uM relative to control; format: functional
[60] = tested on: HL-60(TB); test: Growth inhibition of human HL-60(TB) cells at 10 uM relative to control; format: functional

COc1cccc2c1C(=O)c1c(O)c3c(c(O)c1C2=O)C[C@@](O)(C(=O)CO)C[C@@H]3O[C@H]1C[C@H](N)[C@H](O)[C@H](C)O1 [DOXORUBICIN]
inhibition of growth at 10 µM [1]: 98.1% | growth inhibition (GI) [2]: Active | inhibition of growth at 10 µM [3]: 95.3% | growth inhibition (GI) [4]: Active | growth inhibition (GI) [5]: Active | inhibition of growth at 10 µM [6]: 88% | inhibition of growth at 10 µM [7]: 90.8% | growth inhibition (GI) [8]: Active | growth inhibition (GI) [9]: Active | inhibition of growth at 10 µM [10]: 86.8% | inhibition of growth at 10 µM [11]: 96% | growth inhibition (GI) [12]: Active | growth inhibition (GI) [13]: Active | inhibition of growth at 10 µM [14]: 74.6% | growth inhibition (GI) [15]: Active | growth inhibition (GI) [16]: Active | inhibition of growth at 10 µM [17]: 96.2% | growth inhibition (GI) [18]: Active | inhibition of growth at 10 µM [19]: 85.9% | inhibition of growth at 10 µM [20]: 99.4% | growth inhibition (GI) [21]: Active | growth inhibition (GI) [22]: Active | growth inhibition (GI) [23]: Active | growth inhibition (GI) [24]: Active | growth inhibition (GI) [25]: Active | inhibition of growth at 10 µM [26]: 96.5% | inhibition of growth at 10 µM [27]: 93.1% | inhibition of growth at 10 µM [28]: 97.2% | growth inhibition (GI) [29]: Active | growth inhibition (GI) [30]: Active | growth inhibition (GI) [31]: Active | growth inhibition (GI) [32]: Active | inhibition of growth at 10 µM [33]: 86.2% | inhibition of growth at 10 µM [34]: 84.8% | inhibition of growth at 10 µM [35]: 95.5% | growth inhibition (GI) [36]: Active | growth inhibition (GI) [37]: Active | growth inhibition (GI) [38]: Active | inhibition of growth at 10 µM [39]: 94.3% | GI50 [40]: 0.15 µM | TGI [40]: 2.48 µM | growth inhibition (GI) [41]: Active | inhibition of growth at 10 µM [42]: 95.1% | inhibition of growth at 10 µM [43]: 86.1% | inhibition of growth at 10 µM [44]: 98.7% | growth inhibition (GI) [45]: Active | growth inhibition (GI) [46]: Active | inhibition of growth at 10 µM [47]: 97.9% | inhibition of growth at 10 µM [48]: 66.7% | growth inhibition (GI) [49]: Active | growth inhibition (GI) [50]: Active | IC50 [51]: 31.27 µg/mL (≈ 57.5 µM) | inhibition of growth at 10 µM [52]: 96.6% | growth inhibition (GI) [53]: Active | inhibition of growth at 10 µM [54]: 95.8% | growth inhibition (GI) [55]: Active | growth inhibition (GI) [56]: Active | growth inhibition (GI) [57]: Active | growth inhibition (GI) [58]: Active | growth inhibition (GI) [59]: Active | growth inhibition (GI) [60]: Active
